# Measured values: patent US20170253562A1, “Nampt Inhibitors” (AbbVie Inc., priority 2011, published 2017)
# Target: recombinant, human, C-terminally-His tagged NAMPT (Homo sapiens, UniProt P43490)
# Assay: Time-Resolved Fluorescence Resonance Energy Transfer (TR-FRET) binding assay of NAMPT
# Conditions: 6.8 nM NAMPT, 200 nM probe (Oregon Green 488-conjugated APO866), 2-3 hours
# Experimental: Time-Resolved Fluorescence Resonance Energy Transfer (TR-FRET) Binding Assay of NAMPT
# Plates were read with Envision (Laser Lantha low volume protocol) after 2 to 3 hours.
# Sequence of recombinant, human, C-terminally-His tagged NAMPT (P43490 whole entry): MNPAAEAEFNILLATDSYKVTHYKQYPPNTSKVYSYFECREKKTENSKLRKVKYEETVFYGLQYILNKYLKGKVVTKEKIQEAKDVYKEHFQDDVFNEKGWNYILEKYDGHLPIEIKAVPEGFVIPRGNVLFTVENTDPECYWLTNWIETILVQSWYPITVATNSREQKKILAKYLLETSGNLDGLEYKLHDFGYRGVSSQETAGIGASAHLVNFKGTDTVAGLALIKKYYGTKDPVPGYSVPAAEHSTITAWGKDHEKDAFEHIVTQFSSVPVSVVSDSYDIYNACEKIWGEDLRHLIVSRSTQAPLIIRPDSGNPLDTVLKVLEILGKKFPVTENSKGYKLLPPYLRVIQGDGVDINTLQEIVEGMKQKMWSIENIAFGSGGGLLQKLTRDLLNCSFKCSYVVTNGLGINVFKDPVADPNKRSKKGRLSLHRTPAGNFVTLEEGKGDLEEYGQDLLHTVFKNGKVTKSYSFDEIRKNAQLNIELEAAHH
row,IC50 [nM],Compound
1,952,"O=C(Nc1ccc(C(=O)N2CCC3OCCC3C2)nn1)N1Cc2ccccc2C1 (stereo not drawn) [Example 10, N-[6-(hexahydrofuro[3,2-c]pyridin-5(4H)-ylcarbonyl)pyridazin-3-yl]-1,3-dihydro-2H-isoindole-2-carboxamide]"
2,2050,"O=C(Nc1ccc(C(=O)N2CCOC3(CCOC3)C2)nn1)N1Cc2ccccc2C1 (stereo not drawn) [Example 12, N-[6-(2,6-dioxa-9-azaspiro[4.5]dec-9-ylcarbonyl)pyridazin-3-yl]-1,3-dihydro-2H-isoindole-2-carboxamide]"
3,101,"O=C(Nc1ccc(C(=O)N2CCC3(CCNCC3)CC2)nn1)N1Cc2ccccc2C1 [Example 21, N-[6-(3,9-diazaspiro[5.5]undec-3-ylcarbonyl)pyridazin-3-yl]-1,3-dihydro-2H-isoindole-2-carboxamide]"
4,791,"O=C(Nc1ccc(C(=O)N2CCC(C3CNC3)C2)nn1)N1Cc2ccccc2C1 (stereo not drawn) [Example 36, N-(6-{[3-(azetidin-3-yl)pyrrolidin-1-yl]carbonyl}pyridazin-3-yl)-1,3-dihydro-2H-isoindole-2-carboxamide]"
5,7190,"O=C(Nc1ccc(C(=O)N2CCC3(CNC3)C2)nn1)N1Cc2ccccc2C1 [Example 30, N-[6-(2,6-diazaspiro[3.4]oct-6-ylcarbonyl)pyridazin-3-yl]-1,3-dihydro-2H-isoindole-2-carboxamide]"
6,5850,"O=C(Nc1ccc(C(=O)N2CCC3(CCNCC3)C2C(F)(F)F)nn1)N1Cc2ccccc2C1 (stereo not drawn) [Example 47, N-(6-{[1-(trifluoromethyl)-2,8-diazaspiro[4.5]dec-2-yl]carbonyl}pyridazin-3-yl)-1,3-dihydro-2H-isoindole-2-carboxamide]"
7,6.92,"CC1(CNC(=O)c2ccc(NC(=O)N3Cc4ccccc4C3)cc2)CCCO1 (stereo not drawn) [Example 5, N-(4-{[(2-methyltetrahydrofuran-2-yl)methyl]carbamoyl}phenyl)-1,3-dihydro-2H-isoindole-2-carboxamide]"
8,10000,"O=C(Nc1ccc(C(=O)N2CC3(CNC3)C2)nn1)N1Cc2ccccc2C1 [Example 44, N-[6-(2,6-diazaspiro[3.3]hept-2-ylcarbonyl)pyridazin-3-yl]-1,3-dihydro-2H-isoindole-2-carboxamide]"
9,602,"O=C(NC[C@H]1CC2CNCCN2C1)c1ccc(NC(=O)N2Cc3ccccc3C2)nn1 (stereo partly drawn) [Example 27, N-(6-{[(7R)-octahydropyrrolo[1,2-a]pyrazin-7-ylmethyl]carbamoyl}pyridazin-3-yl)-1,3-dihydro-2H-isoindole-2-carboxamide]"
10,92.2,"O=C(Nc1ccc(C(=O)N2CCC3(CC2)COC3)nn1)N1Cc2ccccc2C1 [Example 8, N-[6-(2-oxa-7-azaspiro[3.5]non-7-ylcarbonyl)pyridazin-3-yl]-1,3-dihydro-2H-isoindole-2-carboxamide]"
11,782,"O=C(NCC1CCC2(CCNCC2)O1)c1ccc(NC(=O)N2Cc3ccccc3C2)nn1 (stereo not drawn) [Example 32, N-{6-[(1-oxa-8-azaspiro[4.5]dec-2-ylmethyl)carbamoyl]pyridazin-3-yl}-1,3-dihydro-2H-isoindole-2-carboxamide]"
12,404,"O=C(Nc1ccc(C(=O)N2CCC3(CCNCC3)C2)nn1)N1Cc2ccccc2C1 [Example 35, N-[6-(2,8-diazaspiro[4.5]dec-2-ylcarbonyl)pyridazin-3-yl]-1,3-dihydro-2H-isoindole-2-carboxamide]"
13,261,"O=C(Nc1ccc(C(=O)N2CC3(CCCCO3)C2)nn1)N1Cc2ccccc2C1 [Example 46, N-[6-(5-oxa-2-azaspiro[3.5]non-2-ylcarbonyl)pyridazin-3-yl]-1,3-dihydro-2H-isoindole-2-carboxamide]"
14,1270,"O=C(Nc1ccc(C(=O)N2CCCC3(CCNC3)C2)nn1)N1Cc2ccccc2C1 (stereo not drawn) [Example 22, N-[6-(2,7-diazaspiro[4.5]dec-7-ylcarbonyl)pyridazin-3-yl]-1,3-dihydro-2H-isoindole-2-carboxamide]"
15,32.6,"O=C(NCCN1CCNC1=O)c1ccc(NC(=O)N2Cc3ccccc3C2)cc1 [Example 3, N-(4-{[2-(2-oxoimidazolidin-1-yl)ethyl]carbamoyl}phenyl)-1,3-dihydro-2H-isoindole-2-carboxamide]"
16,442,"O=C(Nc1ccc(C(=O)N2CC3COCC3C2)nn1)N1Cc2ccccc2C1 (stereo not drawn) [Example 9, N-[6-(tetrahydro-1H-furo[3,4-c]pyrrol-5(3H)-ylcarbonyl)pyridazin-3-yl]-1,3-dihydro-2H-isoindole-2-carboxamide]"
17,218,"O=C(Nc1ccc(C(=O)N2CCC3(CC2)CNC3)nn1)N1Cc2ccccc2C1 [Example 34, N-[6-(2,7-diazaspiro[3.5]non-7-ylcarbonyl)pyridazin-3-yl]-1,3-dihydro-2H-isoindole-2-carboxamide]"
18,454,"O=C(Nc1ccc(C(=O)N2CC3(CCNCC3)C2)nn1)N1Cc2ccccc2C1 [Example 29, N-[6-(2,7-diazaspiro[3.5]non-2-ylcarbonyl)pyridazin-3-yl]-1,3-dihydro-2H-isoindole-2-carboxamide]"

row,IC50 [nM],Compound
1,284,"O=C(NCC1COC2(CCNCC2)C1)c1ccc(NC(=O)N2Cc3ccccc3C2)nn1 (stereo not drawn) [Example 33, N-{6-[(1-oxa-8-azaspiro[4.5]dec-3-ylmethyl)carbamoyl]pyridazin-3-yl}-1,3-dihydro-2H-isoindole-2-carboxamide]"
2,140,"O=C(Nc1ccc(C(=O)N2CCC3(CCNC3)CC2)nn1)N1Cc2ccccc2C1 [Example 23, N-[6-(2,8-diazaspiro[4.5]dec-8-ylcarbonyl)pyridazin-3-yl]-1,3-dihydro-2H-isoindole-2-carboxamide]"
3,2140,"O=C(NCC1CC2(CNC2)CO1)c1ccc(NC(=O)N2Cc3ccccc3C2)nn1 (stereo not drawn) [Example 45, N-{6-[(6-oxa-2-azaspiro[3.4]oct-7-ylmethyl)carbamoyl]pyridazin-3-yl}-1,3-dihydro-2H-isoindole-2-carboxamide]"
4,3260,"O=C(NCc1nnc2n1CCCNC2)c1ccc(NC(=O)N2Cc3ccccc3C2)nn1 [Example 39, N-{6-[(6,7,8,9-tetrahydro-5H-[1,2,4]triazolo[4,3-a][1,4]diazepin-3-ylmethyl)carbamoyl]pyridazin-3-yl}-1,3-dihydro-2H-isoindole-2-carboxamide]"
5,1970,"O=C(NCc1nnc2n1CCNC2)c1ccc(NC(=O)N2Cc3ccccc3C2)nn1 [Example 42, N-{6-[(5,6,7,8-tetrahydro[1,2,4]triazolo[4,3-a]pyrazin-3-ylmethyl)carbamoyl]pyridazin-3-yl}-1,3-dihydro-2H-isoindole-2-carboxamide]"
6,394,"O=C(Nc1ccc(C(=O)N2CCC3(CCCO3)C2)nn1)N1Cc2ccccc2C1 (stereo not drawn) [Example 19, N-[6-(1-oxa-7-azaspiro[4.4]non-7-ylcarbonyl)pyridazin-3-yl]-1,3-dihydro-2H-isoindole-2-carboxamide]"
7,3150,"O=C(Nc1ccc(C(=O)N2CC3(CCCNC3)C2)nn1)N1Cc2ccccc2C1 [Example 28, N-[6-(2,6-diazaspiro[3.5]non-2-ylcarbonyl)pyridazin-3-yl]-1,3-dihydro-2H-isoindole-2-carboxamide]"
8,253,"O=C(NCC1CCC2(CCNCC2)CO1)c1ccc(NC(=O)N2Cc3ccccc3C2)nn1 (stereo not drawn) [Example 31, N-{6-[(2-oxa-9-azaspiro[5.5]undec-3-ylmethyl)carbamoyl]pyridazin-3-yl}-1,3-dihydro-2H-isoindole-2-carboxamide]"
9,648,"O=C(NCC1CC12CCNCC2)c1ccc(NC(=O)N2Cc3ccccc3C2)nn1 (stereo not drawn) [Example 40, N-{6-[(6-azaspiro[2.5]oct-1-ylmethyl)carbamoyl]pyridazin-3-yl}-1,3-dihydro-2H-isoindole-2-carboxamide]"
10,406,"O=C(Nc1ccc(C(=O)N2CCC3(CNCCC3F)C2)nn1)N1Cc2ccccc2C1 (stereo not drawn) [Example 20, N-{6-[(10-fluoro-2,7-diazaspiro[4.5]dec-2-yl)carbonyl]pyridazin-3-yl}-1,3-dihydro-2H-isoindole-2-carboxamide]"
11,158,"N#CC1COC2(CCN(C(=O)c3ccc(NC(=O)N4Cc5ccccc5C4)nn3)CC2)C1 (stereo not drawn) [Example 17, N-{6-[(3-cyano-1-oxa-8-azaspiro[4.5]dec-8-yl)carbonyl]pyridazin-3-yl}-1,3-dihydro-2H-isoindole-2-carboxamide]"
12,2880,"O=C(NC1CCC12CNC2)c1ccc(NC(=O)N2Cc3ccccc3C2)nn1 (stereo not drawn) [Example 25, N-[6-(2-azaspiro[3.3]hept-5-ylcarbamoyl)pyridazin-3-yl]-1,3-dihydro-2H-isoindole-2-carboxamide]"
13,344,"O=C(Nc1ccc(C(=O)N2CC3(CCCO3)C2)nn1)N1Cc2ccccc2C1 [Example 41, N-[6-(5-oxa-2-azaspiro[3.4]oct-2-ylcarbonyl)pyridazin-3-yl]-1,3-dihydro-2H-isoindole-2-carboxamide]"
14,7.39,"O=C(NCC1COC2(CCNCC2)C1)c1ccc(NC(=O)N2Cc3ccccc3C2)cc1 (stereo not drawn) [Example 7, N-{4-[(1-oxa-8-azaspiro[4.5]dec-3-ylmethyl)carbamoyl]phenyl}-1,3-dihydro-2H-isoindole-2-carboxamide]"
15,626,"O=C(Nc1ccc(C(=O)N2CC3(COC3)C2)nn1)N1Cc2ccccc2C1 [Example 13, N-[6-(2-oxa-6-azaspiro[3.3]hept-6-ylcarbonyl)pyridazin-3-yl]-1,3-dihydro-2H-isoindole-2-carboxamide]"
16,578,"O=C(Nc1ccc(C(=O)N2CCC3(CCOC3)C2)nn1)N1Cc2ccccc2C1 (stereo not drawn) [Example 15, N-[6-(2-oxa-7-azaspiro[4.4]non-7-ylcarbonyl)pyridazin-3-yl]-1,3-dihydro-2H-isoindole-2-carboxamide]"
17,55.6,"O=C(NCCN1CCCCCC1)c1ccc(NC(=O)N2Cc3ccccc3C2)cc1 [Example 1, N-(4-{[2-(azepan-1-yl)ethyl]carbamoyl}phenyl)-1,3-dihydro-2H-isoindole-2-carboxamide]"
18,68.9,"O=C(NCC1CC2(CCNCC2)C1)c1ccc(NC(=O)N2Cc3ccccc3C2)nn1 [Example 48, N-{6-[(7-azaspiro[3.5]non-2-ylmethyl)carbamoyl]pyridazin-3-yl}-1,3-dihydro-2H-isoindole-2-carboxamide]"
